Experimental data published in patent US20230126447A1, “OCULAR DRUG DEPOT FOR COMPLEMENT-MEDIATED DISORDERS” (priority 2020, published 2023).
Read-outs that look alike come from different tables or passages of the source.

Assay: Ocular tissue distribution and pharmacokinetics, 7.5 and 15 mg/kg oral, pigmented Dutch Belted rabbits (Example 7)
Type: in vivo
Conditions: for Mean retina concentration / Mean plasma concentration / concentration at 0 h / concentration at 1 h / concentration at 6 h / concentration at 24 h / concentration at 96 h / concentration at 168 h / concentration at 12 h / concentration at 240 h: DB rabbits; for Tmax / concentration at 0 h / concentration at 1 h / concentration at 6 h / concentration at 24 h / concentration at 96 h / concentration at 168 h / concentration at 12 h / concentration at 240 h / MRT last: Dutch Belted, rabbit; for concentration at 0 h / concentration at 1 h / concentration at 6 h / concentration at 24 h / concentration at 96 h / concentration at 168 h / concentration at 12 h / concentration at 240 h: oral
Method: For Group 1, two animals/time point were sacrificed via an overdose of sodium pentobarbital at approximately 1, 6, 12, 24, 96, 168, and 240 hours postdose. Blood (approximately 2 mL) was collected from all animals at sacrifice into tubes containing K2EDTA via exsanguination (cardiac puncture).
For Groups 2 through 4, blood (approximately 2 mL) was collected via a jugular vein using a syringe and needle and was transferred into tubes containing K2EDTA at approximately 12 hours after the a.m. dose on Day 15 from the two animals designated for sacrifice at approximately 240 hours after the a.m. dose on Day 15.
For Groups 2 through 4, two animals/group/time point were sacrificed via an overdose of sodium pentobarbital prior to dosing on Day 15 and at approximately 1, 6, 24, 96, 168, and 240 hours after the a.m. dose on Day 15. Blood (approximately 2 mL) was collected from all animals at sacrifice into tubes containing K2EDTA via exsanguination (cardiac puncture).
Blood was maintained on wet ice, in chilled cryoracks, or at approximately 5° C. prior to centrifugation to obtain plasma. Centrifugation began within 1 hour of collection (Deviation). Plasma was placed into 96-well tubes with barcode labels. Plasma was maintained on dry ice prior to storage at approximately −70° C.
At the time of sacrifice, both eyes were enucleated, and the following tissues were collected. Each eye was flash-frozen in liquid nitrogen for 15 to 20 seconds. The enucleated eye was placed on dry ice or stored at approximately −70° C. for at least 2 hours. Within approximately 3 days, the frozen matrices were collected as right and left eyes for each matrix into the specific tube type listed.
At the time of frozen collection, the ocular tissues were rinsed with saline and blotted dry (as appropriate), weighed, and placed on dry ice. All ocular tissues were collected as single samples.

[1] = Choroid-RPE (OU), male DB rabbits, Group 1, Day 1, […] single oral dose
[2] = Choroid-RPE (OU), male DB rabbits, Group 2, Day 15, […] BID oral (15 mg/kg/day)
[3] = Choroid-RPE (OU), male DB rabbits, Group 3, Day 15, 15 mg/kg/dose BID oral (30 mg/kg/day)
[4] = choroid-RPE, 15 mg/kg, Day 15, 15 mg/kg BID, read-out: Mean Choroid-RPE Concentration
[5] = choroid-RPE, […], Day 1, […] single dose, read-out: Mean Choroid-RPE Concentration
[6] = choroid-RPE, […], Day 15, […] BID, read-out: Mean Choroid-RPE Concentration
[7] = iris-ciliary body (ICB), ICB (OU), male DB rabbits, Group 1, Day 1, 7.5 mg/kg single oral dose
[8] = iris-ciliary body, 15 mg/kg, Day 15, 15 mg/kg BID, read-out: Mean Iris-Ciliary Concentration
[9] = iris-ciliary body, […], Day 1, […] single dose, read-out: Mean Iris-Ciliary Concentration
[10] = iris-ciliary body, […], Day 15, […] BID, read-out: Mean Iris-Ciliary Concentration
[11] = plasma, 15 mg/kg, Day 15, 15 mg/kg BID, read-out: Mean Plasma Concentration
[12] = plasma, […], Day 1, […] single dose, read-out: Mean Plasma Concentration
[13] = plasma, […], Day 15, […] BID, read-out: Mean Plasma Concentration
[14] = retina, 15 mg/kg, Day 15, 15 mg/kg BID, read-out: Mean Retina Concentration
[15] = retina, […], Day 15, […] BID, read-out: Mean Retina Concentration

## CC(=O)c1nn(CC(=O)N2C[C@H](F)C[C@H]2C(=O)Nc2cccc(Br)n2)c2ccc(-c3cnc(C)nc3)cc12 [Compound 1, (2S,4R)-1-(2-(3-Acetyl-5-(2-methylpyrimidin-5-yl)-1H-indazol-1-yl)acetyl)-N-(6-bromopyridin-2-yl)-4-fluoropyrrolidine-2-carboxamide]
30 mg/kg/day (15 mg/kg/dose, BID)
  Ocular tissue exposure in melanin-containing tissues (ICB and choroid-RPE), DB compared to NZW rabbits: greater than 10 fold
[1]
  AUC0-12: 5550 ng·h/g
  AUC0-240: 14000 ng·h/g
  AUC(0-24): 7580 ng·h/g
  AUC(0-inf): 14500 ng·h/g
  AUC(0-t): 14000 ng·h/g
  Ctrough: 260 ng/g
  DN AUC0-12: 740 (h*ng/g)/(mg/kg/dose)
  DN AUC0-24: 1010 (h*ng/g)/(mg/kg/day)
  DN Cmax: 96.8 (ng/g)/(mg/kg/day
[2]
  AUC0-12: 18500 ng·h/g
  AUC0-240: 89100 ng·h/g
  AUC(0-24): 30100 ng·h/g
  AUC(0-t): 89100 ng·h/g
  Ctrough: 1250 ng/g
  DN AUC0-12: 2470 (h*ng/g)/(mg/kg/dose)
  DN AUC0-24: 4020 (h*ng/g)/(mg/kg/day)
  DN Cmax: 267 (ng/g)/(mg/kg/day
[3]
  AUC0-12: 28200 ng·h/g
  AUC0-240: 151000 ng·h/g
  AUC(0-24): 47500 ng·h/g
  AUC(0-t): 151000 ng·h/g
  Ctrough: 1740 ng/g
  DN AUC0-12: 1880 (h*ng/g)/(mg/kg/dose)
  DN AUC0-24: 3170 (h*ng/g)/(mg/kg/day)
  DN Cmax: 265 (ng/g)/(mg/kg/day
Day 1, […] single dose, 24 hr
  Mean retina concentration: BLQ
Day 1, […] single dose, 96 hr
  Mean plasma concentration: BLQ
  Mean retina concentration: BLQ
Day 1, […] single dose, 168 hr
  Mean plasma concentration: BLQ
  Mean retina concentration: BLQ
Day 1, […] single dose, 240 hr
  Mean plasma concentration: BLQ
  Mean retina concentration: BLQ
Day 15, 15 mg/kg BID, 96 hr
  Mean plasma concentration: BLQ
Day 15, 15 mg/kg BID, 168 hr
  Mean plasma concentration: BLQ
Day 15, 15 mg/kg BID, 240 hr
  Mean plasma concentration: BLQ
Day 15, […] BID, 96 hr
  Mean plasma concentration: BLQ
Day 15, […] BID, 168 hr
  Mean plasma concentration: BLQ
Day 15, […] BID, 240 hr
  Mean plasma concentration: BLQ
choroid-RPE (choroid-retinal pigment epithelium), Choroid-RPE (OU), male DB rabbits, Group 1, Day 1, 7.5 mg/kg single oral dose
  Tmax: 1 h
[4]
  concentration at 0 h: 1540 ng/g
  concentration at 1 h: 3970 ng/g
  concentration at 6 h: 1880 ng/g
choroid-RPE, 15 mg/kg, Day 15, 15 mg/kg BID, 24 hr, read-out: Mean Choroid-RPE Concentration
  concentration at 24 h: 1470 ng/g
choroid-RPE, 15 mg/kg, Day 15, 15 mg/kg BID, 96 hr, read-out: Mean Choroid-RPE Concentration
  concentration at 96 h: 441 ng/g
choroid-RPE, 15 mg/kg, Day 15, 15 mg/kg BID, 168 hr, read-out: Mean Choroid-RPE Concentration
  concentration at 168 h: 195 ng/g
[5]
  concentration at 1 h: 726 ng/g
  concentration at 6 h: 472 ng/g
  concentration at 12 h: 260 ng/g
choroid-RPE, […], Day 1, […] single dose, 24 hr, read-out: Mean Choroid-RPE Concentration
  concentration at 24 h: 78 ng/g
choroid-RPE, […], Day 1, […] single dose, 96 hr, read-out: Mean Choroid-RPE Concentration
  concentration at 96 h: 28.4 ng/g
choroid-RPE, […], Day 1, […] single dose, 168 hr, read-out: Mean Choroid-RPE Concentration
  concentration at 168 h: 19.4 ng/g
[6]
  concentration at 0 h: 695 ng/g
  concentration at 1 h: 2000 ng/g
  concentration at 6 h: 1530 ng/g
choroid-RPE, […], Day 15, […] BID, 24 hr, read-out: Mean Choroid-RPE Concentration
  concentration at 24 h: 685 ng/g
choroid-RPE, […], Day 15, […] BID, 96 hr, read-out: Mean Choroid-RPE Concentration
  concentration at 96 h: 238 ng/g
choroid-RPE, […], Day 15, […] BID, 168 hr, read-out: Mean Choroid-RPE Concentration
  concentration at 168 h: 183 ng/g
choroid-retinal pigment epithelium (choroid-RPE), 15 mg/kg, Day 15, 15 mg/kg BID, 240 hr, read-out: Mean Choroid-RPE Concentration
  concentration at 240 h: 119 ng/g
choroid-retinal pigment epithelium (choroid-RPE), […], Day 1, […] single dose, 240 hr, read-out: Mean Choroid-RPE Concentration
  concentration at 240 h: 5.23 ng/g
choroid-retinal pigment epithelium (choroid-RPE), […], Day 15, […] BID, 240 hr, read-out: Mean Choroid-RPE Concentration
  concentration at 240 h: 111 ng/g
choroid-retinal pigment epithelium (choroid-RPE), Choroid-RPE (OU), male DB rabbits, Group 1, Day 1, 7.5 mg/kg single oral dose
  MRT last: 42.8 h
choroid-retinal pigment epithelium (choroid-RPE), Choroid-RPE (OU), male DB rabbits, Group 2, Day 15, 7.5 mg/kg/dose BID oral (15 mg/kg/day)
  Tmax: 1 h
choroid-retinal pigment epithelium (choroid-RPE), Choroid-RPE (OU), male DB rabbits, Group 3, Day 15, 15 mg/kg/dose BID oral (30 mg/kg/day)
  Tmax: 1 h
[7]
  MRT last: 5.59 h
  Tmax: 1 h
iris-ciliary body (ICB), ICB (OU), male DB rabbits, Group 3, Day 15, 15 mg/kg/dose BID oral (30 mg/kg/day)
  Tmax: 1 h
[8]
  concentration at 1 h: 2050 ng/g
  concentration at 6 h: 939 ng/g
iris-ciliary body, 15 mg/kg, Day 15, 15 mg/kg BID, 24 hr, read-out: Mean Iris-Ciliary Concentration
  concentration at 24 h: 460 ng/g
[9]
  concentration at 1 h: 435 ng/g
  concentration at 6 h: 163 ng/g
iris-ciliary body, […], Day 1, […] single dose, 24 hr, read-out: Mean Iris-Ciliary Concentration
  concentration at 24 h: 31.4 ng/g
[10]
  concentration at 1 h: 943 ng/g
  concentration at 6 h: 634 ng/g
iris-ciliary body, […], Day 15, […] BID, 24 hr, read-out: Mean Iris-Ciliary Concentration
  concentration at 24 h: 184 ng/g
[11]
  concentration at 0 h: 36.4 ng/mL
  concentration at 1 h: 910 ng/mL
  concentration at 6 h: 130 ng/mL
  concentration at 12 h: 54.3 ng/mL
plasma, 15 mg/kg, Day 15, 15 mg/kg BID, 24 hr, read-out: Mean Plasma Concentration
  concentration at 24 h: 10.5 ng/mL
[12]
  concentration at 1 h: 423 ng/mL
  concentration at 6 h: 25.1 ng/mL
  concentration at 12 h: 14.8 ng/mL
plasma, […], Day 1, […] single dose, 24 hr, read-out: Mean Plasma Concentration
  concentration at 24 h: 3.26 ng/mL
[13]
  concentration at 0 h: 22.2 ng/mL
  concentration at 1 h: 440 ng/mL
  concentration at 6 h: 90.1 ng/mL
  concentration at 12 h: 29.6 ng/mL
plasma, […], Day 15, […] BID, 24 hr, read-out: Mean Plasma Concentration
  concentration at 24 h: 6.64 ng/mL
retina, 15 mg/kg BID, Day 15, 15 mg/kg BID, read-out: Mean Retina Concentration
  concentration at 6 h: 115 ng/g
retina, 15 mg/kg BID, Day 15, 15 mg/kg BID, 24 hr, read-out: Mean Retina Concentration
  concentration at 24 h: 139 ng/g
retina, 15 mg/kg BID, Day 15, 15 mg/kg BID, 96 hr, read-out: Mean Retina Concentration
  concentration at 96 h: 31.4 ng/g
retina, 15 mg/kg BID, Day 15, 15 mg/kg BID, 168 hr, read-out: Mean Retina Concentration
  concentration at 168 h: 22.5 ng/g
retina, 15 mg/kg BID, Day 15, 15 mg/kg BID, 240 hr, read-out: Mean Retina Concentration
  concentration at 240 h: 19.7 ng/g
[14]
  concentration at 0 h: 45 ng/g
  concentration at 1 h: 1120 ng/g
retina, […], Day 1, […] single dose, read-out: Mean Retina Concentration
  concentration at 1 h: 188 ng/g
[15]
  concentration at 0 h: 20.7 ng/g
  concentration at 1 h: 306 ng/g
